Laboratory results taken from US20100105655A1, “NOVEL COMPOUNDS 515” (ASTRAZENECA AB, priority 2008, published 2010).
pIC50: −log10 of the molar value.

Biological target: T1, IGFR kinase (Homo sapiens, UniProt P08069)
T1 construct: purchased Millipore
Assay: Enzyme assay (c), IGFR kinase, Caliper LabChip
Assay type: biochemical
Conditions: 30 nM IGFR kinase, 6 uM ATP, 3 uM peptide mix; read-out: IGFR IC50
Method: For Echo dosing the solvent was 100% DMSO. A master plate was prepared with 40 ul of 10 mM stock solution of the test compound in DMSO in quadrant 1 of a Labcyte 384 well plate. A 1 in 100 dilution was made from quadrant 1 into quadrant 2 by removing 0.4 ul and adding it to 39.6 ul of DMSO. Subsequent 1 in 100 dilutions were made into quadrant 3 from quadrant 2 and quadrant 4 from quadrant 3.
Multiple 2.5 nl droplets were dispensed from each quadrant of the master plate to generate the dose range that was required in the test. The dose range most commonly used was as follows: 100 uM, 30 uM, 10 uM, 3 uM, 1 uM, 0.3 uM, 0.1 uM, 0.03 uM, 0.01 uM, 0.003 uM, 0.001 uM, 0.0001 uM. Each well was backfilled with dimethyl sulfoxide (DMSO) to a total volume of 120 nl, such that when the enzyme and substrate mix was added the final DMSO concentration was 1%.
DMSO was added to max control wells as 120 nl, minimum control wells were treated with 120 nl of compound at a concentration that inhibited the enzyme activity 100%.
Integration of the substrate and product peaks was carried out using Caliper LabChip software and IC50 curves were calculated using Origin™ software.

T1 sequence (P08069 31-1367): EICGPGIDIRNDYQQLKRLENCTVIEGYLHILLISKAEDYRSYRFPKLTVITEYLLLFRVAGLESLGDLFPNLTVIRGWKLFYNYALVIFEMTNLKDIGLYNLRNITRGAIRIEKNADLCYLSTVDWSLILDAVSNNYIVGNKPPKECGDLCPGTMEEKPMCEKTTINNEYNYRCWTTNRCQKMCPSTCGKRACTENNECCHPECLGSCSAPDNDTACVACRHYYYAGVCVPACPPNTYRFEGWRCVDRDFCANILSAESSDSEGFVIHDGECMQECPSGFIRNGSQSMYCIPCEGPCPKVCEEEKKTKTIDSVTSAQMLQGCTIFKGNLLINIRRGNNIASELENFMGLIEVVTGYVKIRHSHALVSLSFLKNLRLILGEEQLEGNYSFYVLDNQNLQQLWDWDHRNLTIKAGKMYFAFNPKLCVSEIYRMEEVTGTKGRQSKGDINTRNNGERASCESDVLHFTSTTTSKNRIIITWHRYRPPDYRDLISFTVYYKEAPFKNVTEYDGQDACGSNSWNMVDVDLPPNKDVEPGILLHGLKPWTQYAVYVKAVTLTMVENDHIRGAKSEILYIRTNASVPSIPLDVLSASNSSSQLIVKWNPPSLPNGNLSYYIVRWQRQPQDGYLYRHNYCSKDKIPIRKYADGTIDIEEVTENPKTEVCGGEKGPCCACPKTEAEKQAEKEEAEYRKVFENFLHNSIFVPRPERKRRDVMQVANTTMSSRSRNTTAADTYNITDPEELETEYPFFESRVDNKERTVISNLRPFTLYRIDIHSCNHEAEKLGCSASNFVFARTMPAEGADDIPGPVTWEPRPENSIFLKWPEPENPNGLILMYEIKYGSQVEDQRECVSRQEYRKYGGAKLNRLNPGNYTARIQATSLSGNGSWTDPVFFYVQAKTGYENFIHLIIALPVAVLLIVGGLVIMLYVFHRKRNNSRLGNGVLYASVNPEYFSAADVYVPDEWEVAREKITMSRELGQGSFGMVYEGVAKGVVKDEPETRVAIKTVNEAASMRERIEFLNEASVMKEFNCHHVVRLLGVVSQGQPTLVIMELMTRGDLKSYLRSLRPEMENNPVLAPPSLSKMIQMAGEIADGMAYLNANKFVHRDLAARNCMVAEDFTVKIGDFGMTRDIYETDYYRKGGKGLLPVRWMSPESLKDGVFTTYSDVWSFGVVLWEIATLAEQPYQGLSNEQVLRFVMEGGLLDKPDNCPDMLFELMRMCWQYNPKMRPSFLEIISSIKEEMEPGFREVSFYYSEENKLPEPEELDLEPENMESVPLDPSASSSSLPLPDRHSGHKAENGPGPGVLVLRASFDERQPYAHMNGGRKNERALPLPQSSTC

| SMILES | pIC50 |
| --- | --- |
| COc1cc(N2CCN(C(=O)[C@H](C)N)CC2)ccc1Nc1ncc(Cl)c(-c2cnn3ccccc23)n1 [Example 132, (2S)-2-amino-1-[4-[4-[(5-chloro-4-pyrazolo[1,5-a]pyridin-3-yl-pyrimidin-2-yl)amino]-3-methoxy-phenyl]piperazin-1-yl]propan-1-one] | 8.52 |
| COc1ccc(N2CCNCC2)cc1Nc1ncc(C)c(-c2cnc3c(F)cccn23)n1 [Example 199, 4-(8-fluoroimidazo[1,2-a]pyridin-3-yl)-N-(2-methoxy-5-piperazin-1-yl-phenyl)-5-methyl-pyrimidin-2-amine] | 6.96 |
| COc1cc(N2CCN(C(=O)[C@@H](C)O)CC2)ccc1Nc1ncc(Cl)c(-c2cnn3ccccc23)n1 [Example 131, (2R)-1-[4-[4-[(5-chloro-4-pyrazolo[1,5-a]pyridin-3-yl-pyrimidin-2-yl)amino]-3-methoxy-phenyl]piperazin-1-yl]-2-hydroxy-propan-1-one] | 8.52 |
| COCCN1CCN(c2ccc(Nc3ncc(F)c(-c4cnc5ccccn45)n3)c(OC)c2)CC1 [Example 82, 5-fluoro-4-imidazo[1,2-a]pyridin-3-yl-N-[2-methoxy-4-[4-(2-methoxyethyl)piperazin-1-yl]phenyl]pyrimidin-2-amine] | 7.37 |
| COc1cc(C2CCN(C(=O)CO)CC2)ccc1Nc1ncc(Cl)c(-c2cnc3cc(C)ccn23)n1 [Example 245, 1-[4-[4-[[5-chloro-4-(7-methylimidazo[1,2-a]pyridin-3-yl)pyrimidin-2-yl]amino]-3-methoxy-phenyl]-1-piperidyl]-2-hydroxy-ethanone] | 8.40 |
| COc1cc(C(CO)CO)ccc1Nc1ncc(Cl)c(-c2cnn3ccccc23)n1 [Example 148, 2-[4-[(5-chloro-4-pyrazolo[1,5-a]pyridin-3-yl-pyrimidin-2-yl)amino]-3-methoxy-phenyl]propane-1,3-diol] | 7.77 |
| COc1cc(N2CC3CN(CCO)CC(C2)O3)ccc1Nc1ncc(C)c(-c2cnn3ccccc23)n1 [Example 166, 2-[7-[3-methoxy-4-[(5-methyl-4-pyrazolo[1,5-a]pyridin-3-yl-pyrimidin-2-yl)amino]phenyl]-9-oxa-3,7-diazabicyclo[3.3.1]nonan-3-yl]ethanol] | 7.77 |
| COc1cc(OC2CCN(C)C2)ccc1Nc1ncc(Br)c(-c2cnc3ccccn23)n1 (centres unmarked) [Example 123, 5-bromo-4-imidazo[1,2-a]pyridin-3-yl-N-[2-methoxy-4-(1-methylpyrrolidin-3-yl)oxy-phenyl]pyrimidin-2-amine] | 8.30 |
| CNC(=O)CN(C)c1ccc(Nc2ncc(Cl)c(-c3cnc4c(F)cccn34)n2)c(OC)c1 [Example 226, 2-[4-[[5-chloro-4-(8-fluoroimidazo[1,2-a]pyridin-3-yl)pyrimidin-2-yl]amino]-3-methoxy-N-methyl-anilino]-N-methyl-acetamide] | 7.48 |
| CNC(=O)CN1CCN(c2ccc(Nc3ncc(Cl)c(-c4cnc5ccccn45)n3)c(OC)c2)CC1 [Example 66, 2-[4-[4-[(5-chloro-4-imidazo[1,2-a]pyridin-3-yl-pyrimidin-2-yl)amino]-3-methoxy-phenyl]piperazin-1-yl]-N-methyl-acetamide] | 7.82 |
| COc1cc(OC[C@H]2CCCN2C(C)=O)ccc1Nc1ncc(OC)c(-c2cnc3ccccn23)n1 [Example 114, 1-[(2R)-2-[[4-[(4-imidazo[1,2-a]pyridin-3-yl-5-methoxy-pyrimidin-2-yl)amino]-3-methoxy-phenoxy]methyl]pyrrolidin-1-yl]ethanone] | 7.89 |
| COc1cc(O[C@@H]2CCN(S(C)(=O)=O)C2)ccc1Nc1ncc(Cl)c(-c2cnc3ccccn23)n1 [Example 11, 5-chloro-4-imidazo[1,2-a]pyridin-3-yl-N-[2-methoxy-4-[(3R)-1-methylsulfonylpyrrolidin-3-yl]oxy-phenyl]pyrimidin-2-amine] | 7.74 |
| COc1cc(N2CCN(CCO)CC2)ccc1Nc1ncc(OC)c(-c2cnc3ccccn23)n1 [Example 95, 2-[4-[4-[(4-imidazo[1,2-a]pyridin-3-yl-5-methoxy-pyrimidin-2-yl)amino]-3-methoxy-phenyl]piperazin-1-yl]ethanol] | 7.22 |
| COc1cc(OC[C@H]2CCCN2)ccc1Nc1ncc(OC)c(-c2cnc3ccccn23)n1 [Example 96, 4-imidazo[1,2-a]pyridin-3-yl-5-methoxy-N-[2-methoxy-4-[[(2R)-pyrrolidin-2-yl]methoxy]phenyl]pyrimidin-2-amine] | 6.90 |
| COc1cc(C(CO)CNC(C)=O)ccc1Nc1ncc(Cl)c(-c2cnc3ccccn23)n1 (centres unmarked) [Example 276, N-[2-[4-[(5-chloro-4-imidazo[1,2-a]pyridin-3-yl-pyrimidin-2-yl)amino]-3-methoxy-phenyl]-3-hydroxy-propyl]acetamide] | 7.82 |
| COc1ccc(C2CCNCC2)cc1Nc1ncc(F)c(-c2cnc3ccccn23)n1 [Example 112, 5-fluoro-4-imidazo[1,2-a]pyridin-3-yl-N-[2-methoxy-5-(4-piperidyl)phenyl]pyrimidin-2-amine] | 7.38 |
| COc1cc(N2CCN(C[C@@H](C)O)CC2)ccc1Nc1ncc(F)c(-c2cnc3ccccn23)n1 [Example 90, (2R)-1-[4-[4-[(5-fluoro-4-imidazo[1,2-a]pyridin-3-yl-pyrimidin-2-yl)amino]-3-methoxy-phenyl]piperazin-1-yl]propan-2-ol] | 7.43 |

Second part, the compound after the results:

| pIC50 | SMILES |
| --- | --- |
| 7.27 | COc1cc(N2CCCC2C(=O)N2CCOCC2)ccc1Nc1ncc(Cl)c(-c2cnc3ccccn23)n1 (centres unmarked) [Example 3.2, [1-[4-[(5-chloro-4-imidazo[1,2-a]pyridin-3-yl-pyrimidin-2-yl)amino]-3-methoxy-phenyl]pyrrolidin-2-yl]-morpholino-methanone] |
| 7.72 | COc1cc(N2CC[C@@H](O)C2)ccc1Nc1ncc(Cl)c(-c2cnc3ccccn23)n1 [Example 3.49, (3R)-1-[4-[(5-chloro-4-imidazo[1,2-a]pyridin-3-yl-pyrimidin-2-yl)amino]-3-methoxy-phenyl]pyrrolidin-3-ol] |
| 8.05 | COc1cc(N2CCN(C(=O)C3CCC(=O)N3)CC2)ccc1Nc1ncc(Cl)c(-c2cnc3ccccn23)n1 (centres unmarked) [Example 25.1, 5-[4-[4-[(5-chloro-4-imidazo[1,2-a]pyridin-3-yl-pyrimidin-2-yl)amino]-3-methoxy-phenyl]piperazine-1-carbonyl]pyrrolidin-2-one] |
| 8.22 | COCCN1CCN(c2ccc(Nc3ncc(Cl)c(-c4cnc5ccccn45)n3)c(OC)c2)CC1 [Example 3.46, 5-chloro-4-imidazo[1,2-a]pyridin-3-yl-N-[2-methoxy-4-[4-(2-methoxyethyl)piperazin-1-yl]phenyl]pyrimidin-2-amine] |
| 7.80 | CC(=O)N1CCN(c2cc(C)c(Nc3ncc(Cl)c(-c4cnc5ccccn45)n3)cc2F)CC1 [Example 3.33, 1-[4-[4-[(5-chloro-4-imidazo[1,2-a]pyridin-3-yl-pyrimidin-2-yl)amino]-2-fluoro-5-methyl-phenyl]piperazin-1-yl]ethanone] |
| 7.49 | COc1cc(N2CC[C@H](O)C2)ccc1Nc1ncc(Cl)c(-c2cnc3ccccn23)n1 [Example 3.47, (3S)-1-[4-[(5-chloro-4-imidazo[1,2-a]pyridin-3-yl-pyrimidin-2-yl)amino]-3-methoxy-phenyl]pyrrolidin-3-ol] |
